Assay results taken from patent US20250009697A1, “COMPOSITION FOR INCREASING AMOUNT OF FOOD INGESTED AND/OR IMPROVING ANOREXIA, AND COMPOSITION FOR ACTIVATING TRANSIENT RECEPTOR POTENTIAL ANKYRIN 1” (HOUSE FOODS GROUP INC., priority 2021, published 2025).
Each block holds one compound with its values, some of them ahead of it.

Legend:
Type in all cases: cell-based
Human TRPA1 (hTRPA1) [1] = molecular target: T1, Human TRPA1 (hTRPA1) (Homo sapiens, UniProt O75762); experiment: TRPA1 Activation Test 1: intracellular Ca2+ imaging assay 1-1 to 1-3, hTRPA1 stably expressing cell line; conditions: test sample 30 μM; for TRPA1 activation rate, With antagonist: A-967079 1 μM
T1 construct: expressed in transfected cells
Method: (§1) DNAs encoding genes described in the following Table 2 were inserted into pcDNA 5/TO vector (Invitrogen) to prepare various expression vectors.
(§2) These expression vectors were transfected into T-REx™_293 cells (Invitrogen) by a conventional method using Lipofectamine LTX (Invitrogen). Then, various transfectants were cultured and cloned by a conventional method using Dulbecco's Modified Eagle Medium (DMEM, Nacalai Tesque Inc.), containing 10% fetal bovine serum (FBS, Cytiva), […] of hygromycin B, and 5 μg/mL of blasticidin S, as a drug selection medium to obtain a hTRPA1 stably expressing cell line, a hTRPV1 stably expressing cell line, and a hTRPM8 stably expressing cell line.
A hTRPA1 stably expressing cell line in which expression of hTRPA1 had been induced in advance by a conventional method was prepared in a 96 well clear bottom plate (black), and a hTRPA1 activating action of the purified oxylipin or the R2 fraction (both were assumed to contain a compound having a molecular weight of 294) obtained in the above item 1 was tested. Specifically, after each well was washed with PBS, 50 μL of an assay buffer (Hanks' balanced salt solution containing no calcium ions or magnesium ions that contained 1 mM of CaCl2 dihydrate, 20 mM of HEPES, and 0.1% BSA) containing calcium fluorescent indicator Calbryte™ 520 AM (produced by AAT Bioquest) in a final concentration of 4 μM was added, followed by incubating at 33° C. for 45 minutes. After washing with the assay buffer, 100 μL of the assay buffer was added to each well. This plate was set to FlexStation 3 (Molecular Devices, LLC), and a fluorescence intensity (excitation wavelength 490 nm, fluorescence wavelength 525 nm) at 31° C. was measured every two seconds, and 30 seconds after the start of the measurement, 100 μL of an assay buffer containing a test sample which was prepared to have a certain final concentration or DMSO was added. Then, a well in which an assay buffer containing ionomycin (having a final concentration of 10 μM after the addition) instead of the test samples was added was also prepared as a reference for fluorescence intensity.
(§3) The measurement was continued from the start of the measurement up to 120 seconds, and the TRPA1 activation ability of the test samples was calculated in accordance with the following formula.
(§4) Activation rate (%)=(Fmax[s]−F0)/(Fmax[i]−F0)×100 • Fmax[s]: The maximum value of the fluorescence intensity when the test sample or the positive control was added • F0: The average value of the fluorescence intensity for 20 seconds after the start of the measurement (base line) • Fmax[i]: The maximum value of the fluorescence intensity when ionomycin was added
The TRPA1 activation ability was measured in the same manner as in the above (2) except that the R2 fraction or allyl isothiocyanate (AITC) was used as a test sample and the test was conducted with A-967079 (1 μM), which is a TRPA1-specific antagonist, or without A-967079. In addition, regarding the R2 fraction, the hTRPV1 stably expressing cell line or the hTRPM8 stably expressing cell line was used instead of the hTRPA1 stably expressing cell line to conduct the same test. Note that as positive controls, capsaicin was used for the hTRPV1 stably expressing cell line and icilin was used for the hTRPM8 stably expressing cell line.
The TRPA1 activation ability was measured in the same manner as in the above (2) except that each isolated compound or allyl isothiocyanate (AITC) was used as a test sample and the test was conducted with A-967079 (1 μM), which was a TRPA1-specific antagonist, or without A-967079.

Human TRPA1 (hTRPA1) [2] = molecular target: T1, Human TRPA1 (hTRPA1); experiment: TRPA1 Activation Test 2: intracellular Ca2+ imaging assay 2-1 to 2-3, hTRPA1 stably expressing cell line; conditions: test sample 30 μM
Method: as §1, §2
(§5) A hTRPA1 stably expressing cell line in which expression of hTRPA1 had been induced in advance by a conventional method was prepared in a 96 well clear bottom plate, and the hTRPA1 activating action of rhein (produced by Tokyo Chemical Industry Co., Ltd.) was tested. Specifically, after each well was washed with PBS, 50 μL of an assay buffer (Hanks' balanced salt solution containing no calcium ion or magnesium ion that contained 1 mM of CaCl2 dihydrate, 20 mM of HEPES, and 0.1% BSA) containing calcium fluorescent indicator Calbryte™ 520 AM (produced by AAT Bioquest) in a final concentration of 4 μM was added, followed by incubating at 33° C. for 45 minutes. After washing with the assay buffer, 100 μL of the assay buffer was added to each well. This plate was set to FlexStation 3 (Molecular Devices, LLC), and a fluorescence intensity (excitation wavelength 490 nm, fluorescence wavelength 525 nm) at 31° C. was measured every two seconds, and 30 seconds after the start of the measurement, 100 μL of an assay buffer containing a test sample (allyl isothiocyanate (AITC) of positive control or rhein) which was prepared to have a certain final concentration or DMSO was added. Then, a well in which an assay buffer containing ionomycin (having a final concentration of 10 μM after the addition) instead of the test samples was added was also prepared as a reference for fluorescence intensity.
as §3
as §4, with “or” for “or the”
(§6) The TRPA1 activation ability of each test sample was measured in the same manner as in the above (2) except the test was conducted with A-967079 (1 μM), which is a TRPA1-specific antagonist, or without A-967079. In addition, intracellular Ca^2+ imaging assay was conducted in the same manner as in the above (2) except that a hTRPV1 stably expressing cell line, a hTRPM8 stably expressing cell line, or a Mock cell was used instead of the hTRPA1 stably expressing cell line. Note that capsaicin was used as positive control for the hTRPV1 stably expressing cell line, and icilin was used as positive control for the hTRPM8 stably expressing cell line.
A TRPA1 activation ability was measured in the same manner as in the above (2) by using, as a test sample, rhein or compounds described in the following Table 10, which had anthraquinone structures similar to rhein, at a concentration of 200 μM of the test sample.

Mock cell = experiment: TRPA1 Activation Test 2: intracellular Ca2+ imaging assay 2-2, Mock cell; conditions: test sample 30 μM; Table 9
Method: as §5, §3
Activation rate (%)=(Fmax[s]−F0)/(Fmax[i]−F0)×100 • Fmax[s]: The maximum value of the fluorescence intensity when the test sample or positive control was added • F0: The average value of the fluorescence intensity for 20 seconds after the start of the measurement (base line) • Fmax[i]: The maximum value of the fluorescence intensity when ionomycin was added […]

Human TRPV1 (hTRPV1) [3] = molecular target: T2, Human TRPV1 (hTRPV1) (Homo sapiens, UniProt Q8NER1); experiment: TRPA1 Activation Test 1: intracellular Ca2+ imaging assay 1-2, hTRPV1 stably expressing cell line; conditions: test sample 1 μM; Table 5
T2 construct: expressed in transfected cells
Method: as §1, §2
After washing with the assay buffer, 100 μL of the assay buffer was added to each well. […] Then, a well in which an assay buffer containing ionomycin (having a final concentration of 10 μM after the addition) instead of the test samples was added was also prepared as a reference for fluorescence intensity.
as §3

Human TRPV1 (hTRPV1) [4] = molecular target: T2, Human TRPV1 (hTRPV1); experiment: TRPA1 Activation Test 2: intracellular Ca2+ imaging assay 2-2, hTRPV1 stably expressing cell line; conditions: test sample 1 μM; Table 9
Method: as §1, §2
as §5, with “This plate was set to FlexStation 3 (Molecular Devices, LLC), and a fluorescence intensity (excitation wavelength 490 nm, fluorescence wavelength 525 nm) at 31° C. was measured every two seconds, and 30 seconds after the start of the measurement, 100 μL of an assay buffer containing a test sample (allyl isothiocyanate (AITC) of positive control or rhein) which was prepared to have a certain final concentration or DMSO was added.” left out
as §3
as §4, with “or” for “or the”
as §6, with “Note that capsaicin was used as positive control for the hTRPV1 stably expressing cell line, and icilin was used as positive control for the hTRPM8 stably expressing cell line.” left out

Human TRPM8 (hTRPM8) [5] = molecular target: T3, Human TRPM8 (hTRPM8) (Homo sapiens, UniProt Q7Z2W7); experiment: TRPA1 Activation Test 1: intracellular Ca2+ imaging assay 1-2, hTRPM8 stably expressing cell line; conditions: test sample 5 μM; Table 5
T3 construct: expressed in transfected cells
Method: as §1, §2
A hTRPA1 stably expressing cell line in which expression of hTRPA1 had been induced in advance by a conventional method was prepared in a 96 well clear bottom plate (black), and a hTRPA1 activating action of the purified oxylipin or the R2 fraction (both were assumed to contain a compound having a molecular weight of 294) obtained in the above item 1 was tested. […] Then, a well in which an assay buffer containing ionomycin (having a final concentration of 10 μM after the addition) instead of the test samples was added was also prepared as a reference for fluorescence intensity. […]

Human TRPM8 (hTRPM8) [6] = molecular target: T3, Human TRPM8 (hTRPM8); experiment: TRPA1 Activation Test 2: intracellular Ca2+ imaging assay 2-2, hTRPM8 stably expressing cell line; conditions: test sample 5 μM; Table 9
Method: as §1, §2
as §5, with “This plate was set to FlexStation 3 (Molecular Devices, LLC), and a fluorescence intensity (excitation wavelength 490 nm, fluorescence wavelength 525 nm) at 31° C. was measured every two seconds, and 30 seconds after the start of the measurement, 100 μL of an assay buffer containing a test sample (allyl isothiocyanate (AITC) of positive control or rhein) which was prepared to have a certain final concentration or DMSO was added.” left out
as §3
as §4, with “or” for “or the”
as §6, with “Note that capsaicin was used as positive control for the hTRPV1 stably expressing cell line, and icilin was used as positive control for the hTRPM8 stably expressing cell line.” left out

T1 sequence (O75762 whole entry): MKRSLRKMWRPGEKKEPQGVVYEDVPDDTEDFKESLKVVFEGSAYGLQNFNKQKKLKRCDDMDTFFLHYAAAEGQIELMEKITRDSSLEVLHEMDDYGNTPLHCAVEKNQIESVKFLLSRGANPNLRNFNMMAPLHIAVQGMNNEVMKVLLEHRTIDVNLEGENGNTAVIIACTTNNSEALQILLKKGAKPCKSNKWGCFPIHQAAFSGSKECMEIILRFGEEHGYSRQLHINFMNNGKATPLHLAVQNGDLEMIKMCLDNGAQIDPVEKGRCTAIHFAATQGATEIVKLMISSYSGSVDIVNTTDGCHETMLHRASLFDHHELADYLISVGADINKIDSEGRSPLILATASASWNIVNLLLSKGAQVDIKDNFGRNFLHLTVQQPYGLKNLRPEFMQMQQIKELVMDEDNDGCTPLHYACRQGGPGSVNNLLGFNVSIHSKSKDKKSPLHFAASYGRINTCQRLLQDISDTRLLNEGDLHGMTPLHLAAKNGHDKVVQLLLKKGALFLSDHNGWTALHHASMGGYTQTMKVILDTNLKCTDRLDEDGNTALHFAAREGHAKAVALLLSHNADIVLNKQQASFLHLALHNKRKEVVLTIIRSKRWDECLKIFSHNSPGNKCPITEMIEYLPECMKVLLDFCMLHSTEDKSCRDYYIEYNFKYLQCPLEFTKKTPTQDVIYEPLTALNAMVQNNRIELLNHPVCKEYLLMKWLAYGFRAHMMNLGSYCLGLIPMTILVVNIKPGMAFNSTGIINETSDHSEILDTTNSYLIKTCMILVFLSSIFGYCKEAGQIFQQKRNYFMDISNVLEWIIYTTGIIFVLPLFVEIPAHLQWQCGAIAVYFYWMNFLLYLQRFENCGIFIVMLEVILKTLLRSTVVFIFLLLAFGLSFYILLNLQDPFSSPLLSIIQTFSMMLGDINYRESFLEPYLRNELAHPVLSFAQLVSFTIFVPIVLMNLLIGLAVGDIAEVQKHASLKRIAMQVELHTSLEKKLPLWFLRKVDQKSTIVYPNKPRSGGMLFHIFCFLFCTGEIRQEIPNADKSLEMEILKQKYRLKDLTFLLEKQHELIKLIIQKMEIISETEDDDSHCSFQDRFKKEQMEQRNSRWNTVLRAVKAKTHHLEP
T3 sequence (Q7Z2W7 whole entry): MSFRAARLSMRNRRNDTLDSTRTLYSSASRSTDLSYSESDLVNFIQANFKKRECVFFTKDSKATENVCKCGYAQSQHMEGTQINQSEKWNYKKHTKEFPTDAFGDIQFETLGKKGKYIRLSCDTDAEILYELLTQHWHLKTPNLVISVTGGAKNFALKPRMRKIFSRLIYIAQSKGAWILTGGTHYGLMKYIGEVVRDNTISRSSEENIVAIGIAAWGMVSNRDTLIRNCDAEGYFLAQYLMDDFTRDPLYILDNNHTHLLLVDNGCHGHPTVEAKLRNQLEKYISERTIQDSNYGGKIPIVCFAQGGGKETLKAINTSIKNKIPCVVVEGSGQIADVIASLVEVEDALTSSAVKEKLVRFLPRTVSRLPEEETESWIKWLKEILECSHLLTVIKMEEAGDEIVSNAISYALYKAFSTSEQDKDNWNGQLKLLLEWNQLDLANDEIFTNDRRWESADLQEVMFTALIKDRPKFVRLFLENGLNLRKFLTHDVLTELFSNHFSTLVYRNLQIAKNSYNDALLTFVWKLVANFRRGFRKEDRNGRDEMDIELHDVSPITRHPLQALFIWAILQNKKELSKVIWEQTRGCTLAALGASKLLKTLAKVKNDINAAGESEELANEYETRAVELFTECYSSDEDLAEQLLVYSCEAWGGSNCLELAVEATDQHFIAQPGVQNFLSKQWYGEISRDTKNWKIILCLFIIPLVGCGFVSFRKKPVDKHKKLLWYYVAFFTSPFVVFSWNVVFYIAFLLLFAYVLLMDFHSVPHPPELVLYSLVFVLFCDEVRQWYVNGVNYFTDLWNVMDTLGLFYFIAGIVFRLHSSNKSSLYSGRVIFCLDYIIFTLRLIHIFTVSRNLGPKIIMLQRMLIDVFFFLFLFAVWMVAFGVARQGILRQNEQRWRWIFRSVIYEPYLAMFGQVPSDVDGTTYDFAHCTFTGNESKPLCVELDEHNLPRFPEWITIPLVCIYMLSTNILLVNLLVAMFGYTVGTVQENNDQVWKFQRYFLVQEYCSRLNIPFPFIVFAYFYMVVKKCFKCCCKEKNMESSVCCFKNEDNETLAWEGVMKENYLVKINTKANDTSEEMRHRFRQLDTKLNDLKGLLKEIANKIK
T2 sequence (Q8NER1 whole entry): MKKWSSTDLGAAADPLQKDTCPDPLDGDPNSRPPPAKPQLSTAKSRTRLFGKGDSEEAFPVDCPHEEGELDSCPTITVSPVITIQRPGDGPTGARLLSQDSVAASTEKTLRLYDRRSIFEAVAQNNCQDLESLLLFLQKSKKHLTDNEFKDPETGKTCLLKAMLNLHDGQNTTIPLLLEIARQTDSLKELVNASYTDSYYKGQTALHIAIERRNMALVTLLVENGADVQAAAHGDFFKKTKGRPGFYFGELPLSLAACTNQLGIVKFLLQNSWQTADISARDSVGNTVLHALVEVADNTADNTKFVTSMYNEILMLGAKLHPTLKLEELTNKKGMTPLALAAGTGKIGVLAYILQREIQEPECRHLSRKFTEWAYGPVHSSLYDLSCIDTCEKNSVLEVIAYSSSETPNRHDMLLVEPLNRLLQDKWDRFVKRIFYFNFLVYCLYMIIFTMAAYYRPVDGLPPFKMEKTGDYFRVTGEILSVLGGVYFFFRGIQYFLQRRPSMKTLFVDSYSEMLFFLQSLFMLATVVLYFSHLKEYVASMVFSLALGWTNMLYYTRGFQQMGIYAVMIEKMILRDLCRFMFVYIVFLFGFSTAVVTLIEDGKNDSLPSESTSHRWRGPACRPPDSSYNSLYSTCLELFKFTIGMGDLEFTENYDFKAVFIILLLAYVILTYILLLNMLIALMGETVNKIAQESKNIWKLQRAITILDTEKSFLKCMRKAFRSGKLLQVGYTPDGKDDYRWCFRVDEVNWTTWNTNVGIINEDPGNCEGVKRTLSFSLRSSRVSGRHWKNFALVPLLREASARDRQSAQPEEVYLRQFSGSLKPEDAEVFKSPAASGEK

Structure (SMILES): C=CCN=C=S [AITC, allyl isothiocyanate, reference compound]
TRPA1 activation rate, With antagonist (Human TRPA1 (hTRPA1) [1]; Table 4): 1.30 ± 0.639% | TRPA1 activation rate, With antagonist (Human TRPA1 (hTRPA1) [1]; Table 6): 1.44 ± 0.163% | TRPA1 activation rate, Without antagonist (Human TRPA1 (hTRPA1) [1]; Table 4): 160 ± 2.58% | TRPA1 activation rate, Without antagonist (Human TRPA1 (hTRPA1) [1]; Table 6): 128 ± 2.99% | TRPA1 activation rate, With antagonist (Human TRPA1 (hTRPA1) [2]; A-967079 1 μM, Table 8): 15.7 ± 7.81 % | TRPA1 activation rate, With antagonist (Human TRPA1 (hTRPA1) [2]; A-967079, Table 11): 0.811 ± 0.0386 % | TRPA1 activation rate (Human TRPA1 (hTRPA1) [2]; Table 7): 101 ± 3.66% | TRPA1 activation rate, Without antagonist (Human TRPA1 (hTRPA1) [2]; Table 8): 104 ± 6.10% | TRPA1 activation rate, Without antagonist (Human TRPA1 (hTRPA1) [2]; Table 11): 115 ± 6.15% | Activation rate, Mock (Mock cell): 6.40 ± 0.143%

TRPV1 activation rate (Human TRPV1 (hTRPV1) [3]): 113 ± 1.16% | TRPV1 activation rate (Human TRPV1 (hTRPV1) [4]): 96.3 ± 3.24%
Structure (SMILES): COc1cc(CNC(=O)CCCC/C=C/C(C)C)ccc1O [Capsaicin, capsaicin, reference compound]

TRPM8 activation rate (Human TRPM8 (hTRPM8) [5]): 79.8 ± 1.71% | TRPM8 activation rate (Human TRPM8 (hTRPM8) [6]): 104 ± 2.19^ %
Structure (SMILES): O=C1NC(c2cccc([N+](=O)[O-])c2)=CCN1c1ccccc1O [Icilin, icilin, reference compound]
